Laboratory results: patent US4127675A, “4-(Alkylamino-2-hydroxypropoxy)-indenes and method of use” (Yamanouchi Pharmaceutical Co., Ltd., priority 1968, dated 1978)
Like-named read-outs stand apart in the source and are kept apart here.

Experiments:
[1] = test system: resting heart rate; assay: Effect on resting (basic) heart rate in reserpinized, vagotomized rats (Experiment 3); type: in vivo, rat; conditions: i.v., cumulative
Method: (§1) The effects of certain compounds on isoproterenol-induced tachycardia as well as on resting heart rate were studied in reserpinized, vagotomized rats. The rat was anaesthetized with pentobarbital 18 hours after treatment with reserpine (8 mg./kg., i.p.) and vagotomized bilaterally in the neck. Heart rate was recorded by a cardiotacho-meter (RT-2, Nihonkoden). After the control response to l-isoproterenol (0.1 μg./kg., i.v.) was obtained, each compound tested was injected intravenously in such doses that the cumulative dose increased four-fold: 0.01-0.04-0.16-0.64-2.56 mg./kg., at 20 minute intervals. Ten minutes after each dose of the compound an intravenous injection of l-isoproterenol (0.1 μg./kg.) was administered and the increase in heart rate was recorded. The dose producing 50% blockade of the positive chronotropic control response to l-isoproterenol (ED-50) was estimated in each experiment from curves obtained by plotting inhibition percentage against log cumulative dose.
abbreviations; ^a) BHR : Basic heart rate (the heart rate just before
administration of l-isoproterenol, unit = beat per minute)

[2] = biological target: T1, adrenergic β-receptor (Cavia porcellus, UniProt H0W3H1); assay: Antagonism of l-isoproterenol-induced increase of atrial contraction, isolated guinea pig atria (Experiment 1); parameters: species or system male Hartley guinea pig; conditions: l-isoproterenol 5 × 10^-8 g./ml., 10 minutes previously
T1 construct: The atria obtained from a male Hartley guinea pig; from tissue; host or cells: isolated atria of male Hartley guinea pig
T1 sequence (H0W3H1 1-470): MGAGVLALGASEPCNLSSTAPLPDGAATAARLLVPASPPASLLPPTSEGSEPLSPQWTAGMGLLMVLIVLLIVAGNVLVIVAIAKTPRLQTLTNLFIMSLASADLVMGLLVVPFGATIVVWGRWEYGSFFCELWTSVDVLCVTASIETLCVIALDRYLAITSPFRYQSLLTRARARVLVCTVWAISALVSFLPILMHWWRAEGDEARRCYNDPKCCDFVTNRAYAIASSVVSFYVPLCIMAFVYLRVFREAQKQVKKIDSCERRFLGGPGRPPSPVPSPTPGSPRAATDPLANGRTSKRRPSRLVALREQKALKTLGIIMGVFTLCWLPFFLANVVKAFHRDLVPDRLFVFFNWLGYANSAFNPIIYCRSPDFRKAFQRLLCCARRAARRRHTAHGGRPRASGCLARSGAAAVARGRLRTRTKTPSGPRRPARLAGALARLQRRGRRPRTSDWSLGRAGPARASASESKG
Method: The atria obtained from a male Hartley guinea pig weighing 300-500 g. were trimmed and placed in chambers containing Tyrode solution oxygenated with 95% oxygen and 5% carbon dioxide and maintained at 30° C.
Contractile force was recorded by an isometric lever connected to a strain gauge tension transducer. Antagonistic activity of the tested drugs on the 1-isoproterenol-induced increase of the atrial contraction was investigated.
The first control response was measured adding 1-isoproterenol to the bath fluid to a final concentration of 5 × 10^-8 g./ml. Then the preparation was washed and the same procedure was repeated after application of the drugs to be tested, i.e. 4-(3-isopropylamino-2-hydroxypropoxy)indene and 4-(3-isopropylamino-2-hydroxypropoxy)indane (final concentrations of 8 × 10^-9 g./ml. and 5 × 10^-8 g./ml.), 10 minutes previously.

[3] = Acute intravenous toxicity in white mice; conditions: mouse, in vivo, injected intravenously
[4] = biological target: T2, adrenergic β-receptor (Rattus norvegicus, UniProt P18090); assay: Blockade of isoproterenol-induced tachycardia in reserpinized, vagotomized rats (Experiment 3); type: in vivo; conditions: for Res: Response (percent increase of heart rate induced by 0.1 μg/kg l-isoproterenol): i.v., cumulative, Control = 100; for ED50: rat, iv, read-out: ED50 (dose producing 50% blockade of the positive chronotropic control response to l-isoproterenol)
T2 construct: studied in reserpinized, vagotomized rats; from tissue; host or cells: heart in the living, anaesthetized rat (in vivo heart rate)
T2 sequence (P18090 whole entry): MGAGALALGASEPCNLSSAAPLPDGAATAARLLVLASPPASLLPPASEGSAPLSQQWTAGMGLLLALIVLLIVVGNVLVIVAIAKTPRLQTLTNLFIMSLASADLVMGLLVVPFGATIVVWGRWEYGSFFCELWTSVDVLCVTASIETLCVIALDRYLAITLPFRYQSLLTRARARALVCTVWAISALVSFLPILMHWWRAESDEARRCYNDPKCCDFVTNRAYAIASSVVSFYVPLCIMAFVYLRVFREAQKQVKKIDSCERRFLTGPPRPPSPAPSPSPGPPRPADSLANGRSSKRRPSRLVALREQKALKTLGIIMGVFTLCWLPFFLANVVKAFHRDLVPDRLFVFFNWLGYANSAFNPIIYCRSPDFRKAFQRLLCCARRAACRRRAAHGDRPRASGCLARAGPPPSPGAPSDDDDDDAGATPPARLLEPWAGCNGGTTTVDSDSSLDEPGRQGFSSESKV
Method: as §1, with “After the control response to l-isoproterenol (0.1 μg./kg., i.v.) was obtained, each compound tested was injected intravenously in such doses that the cumulative dose increased four-fold: 0.01-0.04-0.16-0.64-2.56 mg./kg., at 20 minute intervals.” left out

[5] = test system: heart devoid of autonomous nervous control; assay: Direct effect on heart rate of a heart devoid of autonomous nervous control, reserpinized, adrenalectomized, vagotomized rats (Experiment 2); type: in vivo, Wistar rats; conditions: for Change of heart rate (%): + increase, - decrease
Method: Experiment 2 […] Both adrenal glands were removed and bilateral vagotomy in the neck was performed. […] (RM 100). In Table 2, the symbol + represents an increase in heart rate, while the symbol - represents a decrease in heart rate. The standard error is shown in parenthesis.

[6] = final concentration 5 × 10^-8 g./ml.
[7] = final concentration 8 × 10^-9 g./ml.
[8] = cumulative dose, l-isoproterenol 0.1 μg./kg. i.v., ± standard error
[9] = 0.01 mg./kg. i.v., 1 minute after
[10] = 0.01 mg./kg. i.v., 5 minutes after
[11] = 0.01 mg./kg. i.v., 15 minutes after
[12] = 0.01 mg./kg. i.v., 30 minutes after
[13] = 0.05 mg./kg. i.v., 1 minute after
[14] = 0.05 mg./kg. i.v., 5 minutes after
[15] = 0.05 mg./kg. i.v., 15 minutes after
[16] = 0.05 mg./kg. i.v., 30 minutes after
[17] = 0.10 mg./kg. i.v., 1 minute after
[18] = 0.10 mg./kg. i.v., 5 minutes after
[19] = 0.10 mg./kg. i.v., 15 minutes after
[20] = 0.10 mg./kg. i.v., 30 minutes after

ED50 [4, 8]	Compound	BHR: Basic heart rate (just before administration of l-isoproterenol) ([1]; 0.01 mg/kg)	BHR: Basic heart rate (just before administration of l-isoproterenol) ([1]; 0.04 mg/kg)	BHR: Basic heart rate (just before administration of l-isoproterenol) ([1]; 0.16 mg/kg)	BHR: Basic heart rate (just before administration of l-isoproterenol) ([1]; 0.64 mg/kg)	Inhibition rate (%) [2, 6]	Inhibition rate (%) [2, 7]	Res: Response (percent increase of heart rate induced by 0.1 μg/kg l-isoproterenol) ([4]; 0.01 mg/kg)	Res: Response (percent increase of heart rate induced by 0.1 μg/kg l-isoproterenol) ([4]; 0.04 mg/kg)	Res: Response (percent increase of heart rate induced by 0.1 μg/kg l-isoproterenol) ([4]; 0.16 mg/kg)	Res: Response (percent increase of heart rate induced by 0.1 μg/kg l-isoproterenol) ([4]; 0.64 mg/kg)	Change of heart rate (%) [5, 9]	Change of heart rate (%) [5, 10]	Change of heart rate (%) [5, 11]	Change of heart rate (%) [5, 12]	Change of heart rate (%) [5, 13]	Change of heart rate (%) [5, 14]	Change of heart rate (%) [5, 15]	Change of heart rate (%) [5, 16]	Change of heart rate (%) [5, 17]	also measured
0.065 ± 0.013 mg/kg	CC(C)NCC(O)COc1cccc2c1CCC2 (stereo not drawn) [4-(3-isopropylamino-2-hydroxypropoxy)indane]		245±15 beat per minute	236±14 beat per minute	238±17 beat per minute	88.4%	30.4%		54±5%	33±14%	12±1%	-0.9%	+0.3%	-1.9%	-1.7%	-2.1%	-2.0%	-2.0%	-4.6%	-5.9%	Change of heart rate (%) [5, 18]: -8.7%; Change of heart rate (%) [5, 19]: -8.7%; Change of heart rate (%) [5, 20]: -5.4%; effect on the cardiac function (in words) ([5]; Experiment 2): deleterious effects on the cardiac function
0.088 ± 0.011 mg/kg	CCC(C)NCC(O)COc1cccc2c1C=CC2 (stereo not drawn) [4-(3-sec-butylamino-2-hydroxypropoxy)indene]	200±13 beat per minute	218±13 beat per minute	225±14 beat per minute	236±16 beat per minute			81±4%	65±1%	40±5%	17±3%										BHR: Basic heart rate (just before administration of l-isoproterenol) ([1]; 2.56 mg/kg): 228±23 beat per minute; Res: Response (percent increase of heart rate induced by 0.1 μg/kg l-isoproterenol) ([4]; 2.56 mg/kg): 6±1%
	C=CCc1ccccc1OCC(O)CNC(C)C (stereo not drawn) [alprenolol (Aptin), alprenolol, reference compound]	233±12 beat per minute	247±11 beat per minute	261±7 beat per minute	262±4 beat per minute			65±3%	44±3%	17±3%	3±1%										ED50 [4]: 0.03 ± 0.003 mg/kg

Compound	ED50 [4, 8]	BHR: Basic heart rate (just before administration of l-isoproterenol) ([1]; 0.01 mg/kg)	BHR: Basic heart rate (just before administration of l-isoproterenol) ([1]; 0.04 mg/kg)	BHR: Basic heart rate (just before administration of l-isoproterenol) ([1]; 0.16 mg/kg)	BHR: Basic heart rate (just before administration of l-isoproterenol) ([1]; 0.64 mg/kg)	Inhibition rate (%) [2, 6]	Inhibition rate (%) [2, 7]	Res: Response (percent increase of heart rate induced by 0.1 μg/kg l-isoproterenol) ([4]; 0.01 mg/kg)	Res: Response (percent increase of heart rate induced by 0.1 μg/kg l-isoproterenol) ([4]; 0.04 mg/kg)	Res: Response (percent increase of heart rate induced by 0.1 μg/kg l-isoproterenol) ([4]; 0.16 mg/kg)	Res: Response (percent increase of heart rate induced by 0.1 μg/kg l-isoproterenol) ([4]; 0.64 mg/kg)	Change of heart rate (%) [5, 9]	Change of heart rate (%) [5, 10]	Change of heart rate (%) [5, 11]	Change of heart rate (%) [5, 12]	Change of heart rate (%) [5, 13]	Change of heart rate (%) [5, 14]	Change of heart rate (%) [5, 15]	Change of heart rate (%) [5, 16]	Change of heart rate (%) [5, 17]	also measured
CC(C)NCC(O)COc1cccc2c1C=CC2 (racemic) [4-(3-isopropylamino-2-hydroxypropoxy)indene]	0.039 ± 0.002 mg/kg	235±12 beat per minute	246±13 beat per minute	245±14 beat per minute	245±12 beat per minute	81.5%	30.7%	74±3%	50±2%	23±2%	5±1%	+2.4%	+3.8%	+3.2%	+1.7%	+5.6%	+8.4%	+8.7%	+5.2%	+1.5%	LD50 [3]: 25 mg/kg; Change of heart rate (%) [5, 18]: +4.1%; Change of heart rate (%) [5, 19]: +3.5%; Change of heart rate (%) [5, 20]: +4.0%
